Reference: publication PMC9551036, “A selective and orally bioavailable VHL-recruiting PROTAC achieves SMARCA2 degradation in vivo” (Nature Communications, 2022)
Where “and” joins values, the source holds several entries; their conditions need not be identical. Identical values can stand only once. Entries after “also recorded” stand apart in the source; their conditions may differ.

Columns and labels:
SMARCA2 [1] = molecular target: T1, SMARCA2 (Homo sapiens, UniProt P51531); assay: SMARCA2 IHC in A549 xenograft tumours; format: in vivo, mouse; parameters: from tissue; host or cells: subcutaneous NCI-H1568 or A549 xenograft tumours in BomTac:NMRI-Foxn1nu mice
Method: To establish subcutaneous tumours, mice were injected with 5 × 10^6 NCI-H1568 in PBS with 5% FCS or with 1 × 10^7 A549 cells in PBS with 5% FCS. Tumour diameters were measured with a caliper three times a week. The volume of each tumour (in mm^3) was calculated according to the formula [tumour volume = length × diameter^2 × π/6]. To monitor side effects of treatment, mice were inspected daily for abnormalities and body weight was determined daily after the start of treatment. Animals were sacrificed when the tumours reached a size of 1500 mm^3. Mice were randomised into treatment groups when the average tumour size reached ~210–220 mm^3. Group sizes were calculated individually for each tumour model based on tumour growth during model establishment experiments. A power analysis was performed using a sample size calculator (https://www.stat.ubc.ca/~rollin/stats/ssize/n2.html). For both models used in the study, 10 mice per group were used for each experiment. All administrations were dosed with 10 ml/kg (s.c. and oral). Control mice were dosed subcutaneously with 10% HP-β-CD in 50% Ringer solution and orally with 15% HP-β-CD, that means the control mouse treatment was corresponding to the solvent of the compounds. Compound 6 was dosed subcutaneously either in a d1-4 q3d, d6-8 q2d, d11-13 q2d treatment (Treatment 1) or a q3 or 4d treatment (Treatment 2).
Xenograft samples were fixed in 10% formaldehyde for 24 h and later moved to ethanol and embedded in paraffin. 2 µm-thick sections were cut using a microtome, then placed on glass slides ([…], silan printer slides PR-S:001), and subsequently dewaxed. […] All slides were reviewed and evaluated for quality by a board-certified MD specialist in Anatomic Pathology (PC). […] A positivity threshold for DAB OD was determined by normalisation with respect to the DAB OD as calculated from bona fide negative tissue (e.g. murine stroma as background). The average, background-normalised DAB OD of tumour cell nuclei was used to quantitate SMARCA2 expression in each xenograft sample.

SMARCA2 [2] = molecular target: T1, SMARCA2; assay: Western blot of SMARCA2 degradation in NCI-H1568 cells; format: cell-based; parameters: endogenous in cells; host or cells: RKO, NCI-H1568, A549, HCT116, LU99, HCC-364, HCT-15, HCC4006, SK-N-AS
Method: Cells were seeded into 6-well plates 24 h before treatment. Next day, several wells were treated with compounds or DMSO as indicated, washed with PBS and lysed with lysis buffer (1% Triton X-100, 150 mM NaCl, 1 mM EDTA, 50 mM Tris pH 7.4, protease inhibitor cocktail (Roche), 50 units/mL benzonase nuclease (Sigma)). Lysates were cleared by centrifugation at 4 °C, at 15,800 × g for 10 min and the supernatants stored at −20 °C. Protein concentration was determined by BCA assay (Pierce) and the absorbance at 562 nm measured by spectrophotometry (NanoDrop ND1000). […] Western blot images were obtained through detection of SMARCA2 (Sigma #HPA029981 RRID:AB_10602406 1:1000), SMARCA4 (Abcam #ab108318 clone EPR3912 RRID:AB_10889900 1:1000), PBRM1 (Bethyl Laboratories #A301-591A RRID:AB_1078808 1:1000), β-actin (Cell Signalling #4970 clone 13E5 RRID:AB_2223172 1:2500) and GAPDH (Abcam #ab9485 RRID:AB_307275 1:2500) antibodies with IRDye 800CW donkey anti-rabbit secondary antibody (LI-COR #926-32213 RRID:AB_621848 1:10000) using a ChemiDoc MP imaging system (Bio-Rad). Western blots were quantified using Image Studio Lite (Licor, version 5.2) with normalisation to loading control and DMSO and further analysed using GraphPad Prism (version 9.2.0).

[3] = Cell viability assay (CellTiter Glo) in NCI-H1568; format: cell-based, human; conditions: human, NCI-H1568 cells, NCI-H1568; log10 conc -5.90309 mol/l
Outline: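 This proliferation assay used human NCI-H1568 cells seeded at 500–2000 cells per well into 96-well white, clear-bottom plates containing 180–200 µl medium. Compounds were dispensed digitally the following day alongside a T0 reference measurement. Cells and CellTiter Glo reagent were brought to room temperature, incubated 10–20 min with shaking, and luminescence was read.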

[4] = SuppFig3a, 10 nM, per replicate
[5] = SuppFig3a, 100 nM, per replicate
[6] = SuppFig3a, 1000 nM, per replicate
[7] = SuppFig3c, compound 100 nM + MG132 10 uM
[8] = SuppFig3c, compound 100 nM + VH298 10 uM
[9] = SuppFig3c, compound 100 nM alone

T1 sequence (P51531 whole entry): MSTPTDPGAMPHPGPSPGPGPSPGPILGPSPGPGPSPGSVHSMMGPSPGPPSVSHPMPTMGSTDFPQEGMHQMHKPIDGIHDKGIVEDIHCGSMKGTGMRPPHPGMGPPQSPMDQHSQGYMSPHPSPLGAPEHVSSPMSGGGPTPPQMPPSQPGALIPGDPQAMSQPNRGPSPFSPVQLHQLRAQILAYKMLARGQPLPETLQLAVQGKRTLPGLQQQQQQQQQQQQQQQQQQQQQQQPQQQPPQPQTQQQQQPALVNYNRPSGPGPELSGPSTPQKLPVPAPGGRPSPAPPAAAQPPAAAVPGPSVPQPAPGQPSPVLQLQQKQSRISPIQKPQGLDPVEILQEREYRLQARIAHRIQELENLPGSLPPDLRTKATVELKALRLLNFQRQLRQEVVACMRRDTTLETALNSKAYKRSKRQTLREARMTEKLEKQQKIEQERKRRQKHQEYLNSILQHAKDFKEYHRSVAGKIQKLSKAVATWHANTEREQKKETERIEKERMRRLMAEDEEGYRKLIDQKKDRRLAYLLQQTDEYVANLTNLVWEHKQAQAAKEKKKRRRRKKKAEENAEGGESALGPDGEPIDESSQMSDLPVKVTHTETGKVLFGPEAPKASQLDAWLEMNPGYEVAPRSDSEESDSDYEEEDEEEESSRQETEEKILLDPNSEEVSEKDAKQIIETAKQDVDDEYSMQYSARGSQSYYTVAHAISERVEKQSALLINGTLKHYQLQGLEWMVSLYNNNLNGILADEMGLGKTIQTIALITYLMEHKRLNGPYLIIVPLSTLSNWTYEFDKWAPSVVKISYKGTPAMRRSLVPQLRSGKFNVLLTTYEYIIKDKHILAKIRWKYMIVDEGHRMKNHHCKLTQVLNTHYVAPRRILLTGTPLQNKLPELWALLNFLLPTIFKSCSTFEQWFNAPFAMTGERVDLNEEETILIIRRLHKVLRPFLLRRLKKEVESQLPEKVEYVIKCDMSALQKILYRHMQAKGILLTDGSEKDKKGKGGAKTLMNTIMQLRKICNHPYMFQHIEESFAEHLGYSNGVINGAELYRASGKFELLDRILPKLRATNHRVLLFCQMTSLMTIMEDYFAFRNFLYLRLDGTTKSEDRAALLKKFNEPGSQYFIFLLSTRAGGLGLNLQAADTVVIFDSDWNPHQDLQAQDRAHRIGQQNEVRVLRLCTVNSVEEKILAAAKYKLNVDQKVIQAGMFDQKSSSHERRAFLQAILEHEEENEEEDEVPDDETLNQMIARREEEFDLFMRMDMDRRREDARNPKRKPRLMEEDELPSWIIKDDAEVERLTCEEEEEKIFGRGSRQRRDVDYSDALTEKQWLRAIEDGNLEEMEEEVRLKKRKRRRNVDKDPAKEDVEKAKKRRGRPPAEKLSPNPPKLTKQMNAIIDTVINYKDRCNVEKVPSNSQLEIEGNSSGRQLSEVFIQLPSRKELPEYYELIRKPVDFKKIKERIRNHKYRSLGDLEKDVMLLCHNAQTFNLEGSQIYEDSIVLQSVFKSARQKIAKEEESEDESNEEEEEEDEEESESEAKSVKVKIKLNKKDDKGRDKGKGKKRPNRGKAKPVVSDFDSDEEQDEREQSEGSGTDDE

## Cc1ncsc1-c1ccc(C(CCC(C)CCN2CCC(c3ccc4c(c3)n(C3CCCC3)c3nc(=O)c5c(Br)cccc5n43)CC2)NC(=O)C2CC(O)CN2C(=O)C(NC(=O)C2(F)CC2)C(C)(C)C)cc1 (stereo not drawn) [ACBI2]
SMARCA2 [1]; A549 xenograft, 80 mg/kg p.o. once daily, 80 mg/kg
  SMARCA2 staining in tumours at the end of the efficacy study: reduced to background levels; also recorded: decreased to background levels
SMARCA2 [1]; Fig4h, 80 mg/kg po qd, background OD 0.05910 subtracted
  SMARCA2 (OD, normalised): 0.00000
SMARCA2 [1]; Fig4h, 80 mg/kg po qd, per animal
  Avg Stain 1 Nuclear OD: 0.04104 and 0.05262 and 0.08316 and 0.0589 and 0.03791 and 0.04411
SMARCA2 [2]; SuppFig3a, 1 nM, per replicate
  SMARCA2 degradation, % DMSO: 73.2377 % DMSO and 115.98 % DMSO and 86.1519 % DMSO
  smarca2/actin norm to DMSO: 0.7324 and 1.1598 and 0.8615
SMARCA2 [2]; [4]
  SMARCA2 degradation, % DMSO: 22.5404 % DMSO and 46.107 % DMSO and 14.5628 % DMSO
  smarca2/actin norm to DMSO: 0.2254 and 0.4611 and 0.1456
SMARCA2 [2]; [5]
  SMARCA2 degradation, % DMSO: 4.651 % DMSO and 9.376 % DMSO and 28.142 % DMSO
  smarca2/actin norm to DMSO: 0.04651 and 0.09376 and 0.2814
SMARCA2 [2]; [6]
  SMARCA2 degradation, % DMSO: 10.8582 % DMSO and 28.1242 % DMSO and 17.6912 % DMSO
  smarca2/actin norm to DMSO: 0.1086 and 0.2812 and 0.1769
SMARCA2 [2]; [7]
  SMARCA2 - combination with inhibitors, % DMSO: 144.315 % DMSO and 128.607 % DMSO and 88.3654 % DMSO
  smarca2/actin norm to DMSO: 1.443 and 1.286 and 0.8837
SMARCA2 [2]; [8]
  SMARCA2 - combination with inhibitors, % DMSO: 71.7463 % DMSO and 98.6474 % DMSO and 62.3416 % DMSO
  smarca2/actin norm to DMSO: 0.7175 and 0.9865 and 0.6234
SMARCA2 [2]; [9]
  SMARCA2 - combination with inhibitors, % DMSO: 15.1306 % DMSO and 12.518 % DMSO and 13.0375 % DMSO
  smarca2/actin norm to DMSO: 0.1513 and 0.1252 and 0.1304
[3]
  viability at 1.25 µM: 0.898%
